Patent publication US20190192485A1, “DOSAGE REGIMEN FOR THE TREATMENT OF ENDOMETRIOSIS” (MEREO BIOPHARMA 2 LIMITED, priority 2016, published 2019)
≈ marks a conversion by molar mass, not a printed value.

Legend:
[1] = Toxicologic studies in dogs: plasma exposure after single and weekly oral dosing; assay type: in vivo
Source text: (§1) Generally, the inter-animal variability in Cmax levels was small.

testosterone levels = test: Serum testosterone levels in male dogs after 1, 4 and 12 weeks of dosing; assay type: in vivo; settings: all dose levels
Source text: as §1

[2] = Single ascending dose study in pre- and post-menopausal women: safety, tolerability and PK; assay type: in vivo, human; settings: for AUC(0-tlast) Mean / Cmax Mean / T1/2 Mean / Tmax Median: po
Source text: The drug concentration in plasma and/or serum samples can be determined by a number of different ways, e.g. HPLC or LC-MS/MS analyses. […]
(§2) A minimal toxic dose (MTD) was not reached. […] Table 3 presents the PK parameters based on analysis of the concentration-time profile obtained from this study.

[3] = system: estrone, estrone sulfate and estradiol; test: Single ascending dose study in women: PD (estrogen suppression); assay type: in vivo, human
Source text: as §2

aromatase [4] = biological target: T1, aromatase (Homo sapiens, UniProt P11511); test: Low dose study in obese men with low testosterone, with PK/PD analyses of aromatase inhibition; assay type: in vivo
T1 construct: high levels of aromatase in the adipose tissue; from tissue; host or cells: in vivo, human subjects (aromatase of adipose tissue)
T1 sequence (P11511 1-503): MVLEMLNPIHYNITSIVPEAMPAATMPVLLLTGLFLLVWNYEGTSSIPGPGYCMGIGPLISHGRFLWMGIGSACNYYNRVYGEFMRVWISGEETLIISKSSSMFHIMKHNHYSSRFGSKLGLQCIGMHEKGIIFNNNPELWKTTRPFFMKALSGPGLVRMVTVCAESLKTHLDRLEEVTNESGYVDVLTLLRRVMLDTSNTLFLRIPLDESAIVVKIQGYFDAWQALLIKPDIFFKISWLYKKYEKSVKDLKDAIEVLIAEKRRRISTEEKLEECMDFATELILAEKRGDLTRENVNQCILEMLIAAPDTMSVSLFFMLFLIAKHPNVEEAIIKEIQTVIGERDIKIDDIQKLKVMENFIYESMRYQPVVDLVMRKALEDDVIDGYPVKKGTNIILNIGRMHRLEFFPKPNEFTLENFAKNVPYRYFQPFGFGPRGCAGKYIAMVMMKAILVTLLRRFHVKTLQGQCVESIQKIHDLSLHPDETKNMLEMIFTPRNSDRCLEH

[5] = Tissue (fat) biopsy concentration versus plasma; assay type: in vivo; settings: human fat biopsies, read-out: concentration in tissue (fat) relative to plasma/blood
[6] = Single 1.0 mg dose with combined oral contraceptive in premenopausal women (PK interaction, safety)
Protocol: The study consisted of a 49-day screening period and four consecutive 28-day (menstrual) cycles.
For the combined oral contraceptive, 30 μg of ethinyl estradiol and 0.15 mg of levonorgestrel (Seasonique®) was used. Seasonique® is an oral contraceptive designed and approved for daily administration. The 84 blue-green tablets (30-μg ethinyl estradiol and 0.15 mg levonorgestrel) are packaged with seven yellow tablets containing 10-μg ethinyl estradiol to eliminate the hormone free interval.

aromatase [7] = biological target: T1, aromatase; settings: microsomal fraction of human placenta; cited from earlier work
aromatase [8] = biological target: T2, aromatase (Rattus norvegicus, UniProt P22443); settings: once weekly administration, adult female rats; cited from earlier work
T2 construct: achieving medical castration in adult female rats; from tissue; host or cells: in vivo, adult female rats
T2 sequence (P22443 1-508): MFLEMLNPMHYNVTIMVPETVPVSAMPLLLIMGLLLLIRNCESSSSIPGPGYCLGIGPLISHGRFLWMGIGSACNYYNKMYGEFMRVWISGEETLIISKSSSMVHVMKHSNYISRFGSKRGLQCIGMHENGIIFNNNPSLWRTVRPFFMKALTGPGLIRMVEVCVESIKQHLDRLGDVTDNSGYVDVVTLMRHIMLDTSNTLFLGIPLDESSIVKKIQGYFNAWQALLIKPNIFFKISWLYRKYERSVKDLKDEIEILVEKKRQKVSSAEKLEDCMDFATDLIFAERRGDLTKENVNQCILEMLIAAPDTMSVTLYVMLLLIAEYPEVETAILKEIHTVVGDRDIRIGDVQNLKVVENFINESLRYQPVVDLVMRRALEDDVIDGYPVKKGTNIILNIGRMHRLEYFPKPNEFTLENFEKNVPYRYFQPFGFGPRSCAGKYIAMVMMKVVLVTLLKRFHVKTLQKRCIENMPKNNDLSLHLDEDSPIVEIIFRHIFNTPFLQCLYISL

[9] = female, human, in vivo, 0.01 mg
[10] = female, human, in vivo, 0.03 mg

N#Cc1ccc(C(F)(c2ccc(C#N)cc2)n2cncn2)cc1 [CGP47645, 4,4′-[fluoro-(1-H-1,2,4-triazol-1-yl)methylene]bisbenzonitrile]
difference in exposure (AUC and Cmax) between male and female dogs ([1]; dogs): no consistent difference | drug accumulation ([1]; dogs, weekly oral dosing for 4 or 22 weeks versus single dose): no drug accumulation | increase in exposure (AUC and Cmax) with dose ([1]; male and female dogs, single and multiple doses, all dose levels): generally proportional to the dose increase | serum testosterone levels (testosterone levels): dramatically elevated testosterone levels | inter-subject variability ([2]; female, human, in vivo): 10-30% | Tmax ([2]; female, human, in vivo, Tmax): 0.5 to 2 h | Tmax ([2]; female, human, in vivo, median Tmax): ≤ 1 h | AUC(0-tlast) Mean [2, 9]: 1.4 ng·h/mL | Cmax Mean [2, 9]: 0.2 ng/mL | T1/2 Mean [2, 9]: 2.3 days | Tmax Median [2, 9]: 1 h | AUC(0-tlast) Mean [2, 10]: 24.1 ng·h/mL | Cmax Mean [2, 10]: 0.4 ng/mL | T1/2 Mean [2, 10]: 16.5 days | AUC(0-tlast) Mean ([2]; female, human, in vivo, 0.1 mg): 116.2 ng·h/mL | Cmax Mean ([2]; female, human, in vivo, 0.1 mg): 1.7 ng/mL | T1/2 Mean ([2]; female, human, in vivo, 0.1 mg): 23.5 days | Tmax Median ([2]; female, human, in vivo, 0.1 mg): 1 h | Tmax Median ([2]; female, human, in vivo, 0.3 mg): 1 h | Tmax Median ([2]; female, human, in vivo, 1 mg): 1 h | Tmax Median ([2]; female, human, in vivo, 3 mg): 1 h | dose dependence of half-life ([2]; human, in vivo): directly dose dependent | dose proportionality of Cmax and AUC ([2]; human, in vivo): increased in a dose-proportional manner | difference in pharmacokinetics between post- and pre-menopausal women ([2]; in vivo): No differences | minimal toxic dose (MTD) ([2]; single doses 0.01 mg through 20 mg, post-menopausal women): not reached | lowest single dose at which maximal estrogen suppression was observed ([3]; post-menopausal women, chemiluminescence or radioimmunoassay): 0.1 mg | lowest single dose at which transient estrogen suppression was seen ([3]; postmenopausal women): 0.01 mg | estrone suppression compared with letrozole ([3]; postmenopausal women, doses of 0.1 mg and 0.3 mg): at least equal to letrozole | inhibition of estrone, estrone sulfate and estradiol ([3]; women, single ascending doses): dose-dependent inhibition | average estimated IC40 for aromatase inhibition (aromatase [4]; PK/PD analyses, plasma concentration): 0.03 ng/mL | IC90 (aromatase [4]; PK/PD analyses, plasma concentration, read-out: average estimated IC90 for aromatase inhibition): 0.27 ng/mL (≈ 0.89 nM) | lowest dose with effects on the aromatase-testosterone-estradiol pathway (aromatase [4]; females and males with obesity-associated hypogonadotropic hypogonadism, blood levels below IC50): 0.003 mg | Kp [5]: ≤ 10 | safety of co-administration with continuously dosed COC ([6]; in vivo): may be co-administered safely | pharmacokinetic parameters with COC compared with single ascending dose study without COC ([6]; in vivo, po): similar | mode of aromatase inhibition (aromatase [7]): competitive inhibitor | effective dose achieving medical castration (aromatase [8]): 3 mg/kg

C#C[C@]1(O)CC[C@H]2[C@@H]3CCC4=CC(=O)CC[C@@H]4[C@H]3CC[C@@]21CC [levonorgestrel, reference compound]
steady state pharmacokinetic profile with 1 mg CGP47645 versus placebo ([6]; Day 29, surgically sterile healthy premenopausal women, COC 30 μg ethinyl estradiol and 0.15 mg levonorgestrel): similar
